In patent publication US4863935A, “Mitomycin compounds having useful anti-tumor activity” (priority 1986, dated 1989):

Assays:
[1] = LD50 acute toxicity, ddy mice, single abdominal injection; conditions: mouse, in vivo, ip, 5 ddy mice, 14 days observation, Behrens-Koerber's method
Text: (§1) As used herein, the term "LD50 " denotes the acute toxicity. The term "ED50 " denotes the administered amount needed for reducing the volume of Sarcoma 180 solid tumours in animals to 50% of the corresponding tumour volume in control (untreated) animals. The term "WBC4000 " denotes the minimum dose of the drug needed to reduce the number of peripheral leucocytes to 4000/mm^3. A greater TI value results in a broader tolerance to the drug, which is advantageous for higher anti-tumour activity and decreased toxicity. The term "T" used herein denotes the average survival days of the test animals administered with the test compound. The term "C" denotes the average survival days of the control (untreated) animals. The term "OPD" denotes the dose of the drug resulting in the highest survival ratio. The term "ILS30 " denotes a 30% increase of life-span.
LD50, ED50 and WBC4000 were respectively determined as follows:
Each animal of the test group, consisting of 5 ddy mice, was administered once with a test compound by abdominal injection. […] To determine the LD50 value, Behrens-Koerber's method was applied.

[2] = tested on: Sarcoma 180 solid tumour; experiment: ED50 against Sarcoma 180 solid tumour implanted in mice; format: in vivo, male mouse (ddy strain); conditions: for (CI)c: (CI of test compound)/(CI of mitomycin C), CI = LD50/ED50; for ED50: Mus musculus, Sarcoma-180, iv, 168 h, i.v. (tail vein) 24 h after implantation, tumour volume at 7 days, dose for T/C of 0.5
Text: With regard to the so-called chemotherapeutic index viz. the CI value against sarcoma 180 solid tumour, expressed by the formula: […]
as §1
the term (CI)c denotes (CI of the test compound)/(CI of mitomycin C), and
5×10^6 sarcoma 180 solid tumor cells were abdominally implanted into ddy mice. 7 days after this, ascites cells were sampled. The cells were washed once with a sterilized physiological saline and were used to prepare a cell suspension containing 5×10^7 cells per ml of a sterilized physiological saline. On each occasion, 0.1 ml of the cell suspension was subcutaneously implanted under the skin of the right armpit of a male mouse (ddy strain; body weight 20±2 g). The test compound which was dissolved in a physiological saline with or without addition of Tween 80 was injected into the tail vein of each animal of a group consisting of 5 mice at a dose of 0.1-0.2 ml 24 hours after the implantation of the tumor cells.
The anti-tumor activity was determined in the following manner:
7 days after the implantation, the major axis (a) and the minor axis (b) of the tumour were measured to calculate a value of (a×b^2)/2 which corresponds to the volume of the tumour. The antitumour activity was expressed by the ratio of the volume of the tumour (T) of the group of animals administered with the test compound to the corresponding volume of tumours (C) of the untreated animals.
On graph paper, T/C was plotted on the ordinate using an arithmetic scale and the administered amount of test compound was plotted on the abscissa using a logarithmic scale. The relationship between the dose and T/C was shown by a straight line determined by the method of least squares, from which ED50 viz. a dose corresponding to T/C of 0.5 was obtained.

[3] = tested on: lymphocytic Leukemia P-388; experiment: Anti-tumour activity against lymphocytic Leukemia P-388 in mice; format: in vivo, mouse, female of CDF strain
Text: Also, their therapeutic indexes, expressed by the formula:
TI=(OPD)/(dose which results in ILS30),
against lymphocytic Leukemia P-388 and the maximum increased life spans (ILSmax), defined by the formula: […]
as §1
The experiment was carried out in the following manner. 1×10^6 lymphocytic Leukemia P-388 tumour cells were abdominally implanted into each mouse of a group consisting of 5 mice (body weight about 22 g; female of CDF strain). 24 hours after implantation, a physiological saline solution (0.2 ml) containing the test compound with or without addition of Tween 80 was abdominally given to the test animal.
Table 7 indicates anti-tumour activities of selected Compounds (I) against lyphocytic Leukemia P-388.

CO[C@@]12[C@H](COC(N)=O)C3=C(C(=O)C(C)=C(NCCSCOC(=O)NCCC(=O)OC(C)(C)C)C3=O)N1C[C@@H]1N[C@@H]12 [Compound 2, 7-N--[2-(2-t-butoxycarbonylethyl)aminocarbonyloxymethylthioethyl]mitomycin C]
LD50 at 336 h [1]: 45 mg/kg
(CI)c [2]: 1.44
ED50 [2]: 11.2 mg/kg

CO[C@@]12[C@H](COC(N)=O)C3=C(C(=O)C(C)=C(NCCSC(=O)NCCC(=O)OCc4ccccc4)C3=O)N1C[C@@H]1N[C@@H]12 [Compound 3, 7-N--[2-(2-benzyloxycarbonylethyl)aminocarbonylthioethyl]mitomycin C]
LD50 at 336 h [1]: > 100 mg/kg
(CI)c [2]: > 0.89
ED50 [2]: 39.6 mg/kg

CO[C@@]12[C@H](COC(N)=O)C3=C(C(=O)C(C)=C(NCCSC(=O)N(C)C)C3=O)N1C[C@@H]1N[C@@H]12 [Compound 8, 7-N--(2-dimethylaminocarbonylthioethyl)mitomycin C]
LD50 at 336 h [1]: 26.3 mg/kg
(CI)c [2]: 0.65
ED50 [2]: 14.4 mg/kg

CO[C@@]12[C@H](COC(N)=O)C3=C(C(=O)C(C)=C(NCCSC(=O)NC(CC(=O)OCc4ccccc4)c4ccccc4)C3=O)N1C[C@@H]1N[C@@H]12 (stereo partly shown) [Compound 10, 7-N--[2-(1-phenyl-2-benzyloxycarbonylethyl)aminocarbonylthioethyl]mitomycin C]
LD50 at 336 h [1]: > 100 mg/kg
(CI)c [2]: > 0.43
ED50 [2]: 95.5 mg/kg

CO[C@@]12[C@H](COC(N)=O)C3=C(C(=O)C(C)=C(NCCSC(=O)N4CCC[C@H]4C(=O)OCc4ccccc4)C3=O)N1C[C@@H]1N[C@@H]12 [Compound 16, 7-N--[2-((S)--2-benzyloxycarbonylpyrrolidino)-carbonylthioethyl]mitomycin C]
LD50 at 336 h [1]: > 100 mg/kg
(CI)c [2]: > 0.45
ED50 [2]: 84.4 mg/kg

CNC(=O)[C@@H]1CCCN1C(=O)SCCNC1=C(C)C(=O)C2=C(C1=O)[C@@H](COC(N)=O)[C@@]1(OC)[C@H]3N[C@H]3CN21 [Compound 17, 7-N--[2-((S)--2-methylaminocarbonylpyrrolidino)-carbonylthioethyl]mitomycin C]
LD50 at 336 h [1]: 75 mg/kg
(CI)c [2]: 1.32
ED50 [2]: 21.7 mg/kg

CO[C@@]12[C@H](COC(N)=O)C3=C(C(=O)C(C)=C(NCCSC(=O)N4CCC[C@H]4C(=O)N(C)C)C3=O)N1C[C@@H]1N[C@@H]12 [Compound 18, 7-N--[2-((S)--2-dimethylaminocarbonylpyrrolidino)carbonylthioethyl]mitomycin C]
LD50 at 336 h [1]: 97.5 mg/kg
(CI)c [2]: 3.02
ED50 [2]: 12.3 mg/kg

CO[C@@]12[C@H](COC(N)=O)C3=C(C(=O)C(C)=C(NCCSC(=O)N4CCC[C@H]4C(N)=O)C3=O)N1C[C@@H]1N[C@@H]12 [Compound 19, 7-N--[2-((S)--2-carbamoylpyrrolidino)carbonylthioethyl]mitomycin C]
LD50 at 336 h [1]: 75 mg/kg
(CI)c [2]: 1.46
ED50 [2]: 19.6 mg/kg

CO[C@@]12[C@H](COC(N)=O)C3=C(C(=O)C(C)=C(NCCSC(=O)N4CCCC4)C3=O)N1C[C@@H]1N[C@@H]12 [Compound 21, 7-N--(2-pyrrolidinocarbonylthioethyl)mitomycin C]
LD50 at 336 h [1]: 37.5 mg/kg
(CI)c [2]: 1.44
ED50 [2]: 8.4 mg/kg

CNC(=S)SCCNC1=C(C)C(=O)C2=C(C1=O)[C@@H](COC(N)=O)[C@@]1(OC)[C@H]3N[C@H]3CN21 [Compound 25, 7-N--(2-methylaminothiocarbonylthioethyl)mitomycin C]
LD50 at 336 h [1]: 52.5 mg/kg
(CI)c [2]: 1.96
ED50 [2]: 10.5 mg/kg

CCCCNC(=O)SCCNC1=C(C)C(=O)C2=C(C1=O)[C@@H](COC(N)=O)[C@@]1(OC)[C@H]3N[C@H]3CN21 [Compound 28, 7-N--(2-n-butylaminocarbonylthioethyl)mitomycin C]
LD50 at 336 h [1]: 43.8 mg/kg
(CI)c [2]: 1.73
ED50 [2]: 9.9 mg/kg

CO[C@@]12[C@H](COC(N)=O)C3=C(C(=O)C(C)=C(NCCSC(=O)N4CCOCC4)C3=O)N1C[C@@H]1N[C@@H]12 [Compound 33, 7-N--(2-morpholinocarbonylthioethyl)mitomycin C]
LD50 at 336 h [1]: 52.5 mg/kg
(CI)c [2]: 1.23
ED50 [2]: 17.8 mg/kg

CO[C@@]12[C@H](COC(N)=O)C3=C(C(=O)C(C)=C(NCCSC(=O)NC(C)(C)C(=O)OC(C)(C)C)C3=O)N1C[C@@H]1N[C@@H]12 [Compound 34, 7-N--[2-(1-methyl-1-t-butoxycarbonylethyl)-aminocarbonylthioethyl]mitomycin C]
LD50 at 336 h [1]: 37.5 mg/kg
(CI)c [2]: 1.14
ED50 [2]: 13.7 mg/kg

CO[C@@]12[C@H](COC(N)=O)C3=C(C(=O)C(C)=C(NCCSC(=O)N(C)NC=O)C3=O)N1C[C@@H]1N[C@@H]12 [Compound 35, 7-N--[2-(1-methyl-2-formylhydrazino)carbonylthioethyl]mitomycin C]
LD50 at 336 h [1]: 105 mg/kg
(CI)c [2]: 1.30
ED50 [2]: 27.9 mg/kg

CO[C@@]12[C@H](COC(N)=O)C3=C(C(=O)C(C)=C(NCCSC(=S)NC4CCCCC4)C3=O)N1C[C@@H]1N[C@@H]12 [Compound 37, 7-N--(2-cyclohexylaminothiocarbonylthioethyl)mitomycin C]
LD50 at 336 h [1]: 41.3 mg/kg
(CI)c [2]: 0.73
ED50 [2]: 23.5 mg/kg

CC1=C(NCCSC(=S)NC2CCCCC2)C(=O)C2=C(C1=O)N1C[C@H]3[C@H](N3C)[C@]1(O)[C@H]2COC(N)=O (stereo partly shown) [Compound 38, 7-N--(2-cyclohexylaminothiocarbonylthioethyl)mitomycin D]
LD50 at 336 h [1]: 75 mg/kg
(CI)c [2]: 0.79
ED50 [2]: 39.5 mg/kg

CCCNC(=S)SCCNC1=C(C)C(=O)C2=C(C1=O)[C@@H](COC(N)=O)[C@@]1(OC)[C@H]3N[C@H]3CN21 [Compound 40, 7-N--(2-n-propylaminothiocarbonylthioethyl)mitomycin C]
LD50 at 336 h [1]: > 25 mg/kg
(CI)c [2]: > 1.03
ED50 [2]: 10.1 mg/kg

CO[C@@]12[C@H](COC(N)=O)C3=C(C(=O)C(C)=C(NCCSC(=O)N4CCC(Cc5ccccc5)CC4)C3=O)N1C[C@@H]1N[C@@H]12 [Compound 41, 7-N--[2-(4-benzylpiperidino)carbonylthioethyl]mitomycin C]
LD50 at 336 h [1]: 41.3 mg/kg
(CI)c [2]: 1.37
ED50 [2]: 13.7 mg/kg

CO[C@@]12[C@H](COC(N)=O)C3=C(C(=O)C(C)=C(NCCSC(=O)N4CCCCC4)C3=O)N1C[C@@H]1N[C@@H]12 [Compound 42, 7-N--(2-piperidinocarbonylthioethyl)mitomycin C]
LD50 at 336 h [1]: 33.8 mg/kg
(CI)c [2]: 1.14
ED50 [2]: 9.34 mg/kg

CO[C@@]12[C@H](COC(N)=O)C3=C(C(=O)C(C)=C(NCCSC(=O)N4CCC(O)CC4)C3=O)N1C[C@@H]1N[C@@H]12 [Compound 43, 7-N--[2-(4-hydroxypiperidino)carbonylthioethyl]mitomycin C]
LD50 at 336 h [1]: 52.5 mg/kg
(CI)c [2]: 2.17
ED50 [2]: 9.15 mg/kg

COC(=O)[C@@H]1CC(O)CN1C(=O)SCCNC1=C(C)C(=O)C2=C(C1=O)[C@@H](COC(N)=O)[C@@]1(OC)[C@H]3N[C@H]3CN21 (stereo partly drawn) [Compound 44, 7-N--[2-((S)--2-methoxycarbonyl-(SR)-4-hydroxypyrrolidino)carbonylthioethyl]mitomycin C]
LD50 at 336 h [1]: > 100 mg/kg
(CI)c [2]: > 1.85
ED50 [2]: 27.5 mg/kg

CO[C@@]12[C@H](COC(N)=O)C3=C(C(=O)C(C)=C(NCCSC(=S)NC(c4ccccc4)c4ccccc4)C3=O)N1C[C@@H]1N[C@@H]12 [Compound 50]
(ILSmax)c ([3]; (ILSmax of test compound)/(ILSmax of mitomycin C), ILS=(T-C)/C×100): > 2.39
(TI)c ([3]; (TI of test compound)/(TI of mitomycin C), TI = OPD/dose which results in ILS30): 1.10
ED (optimal dose, highest survival) ([3]; Mus musculus, P388, ip, dose resulting in the highest survival ratio, i.p. 24 h after implantation, 30 days, read-out: OPD): 12.5 mg/kg
ED (30% increase of life-span) ([3]; Mus musculus, P388, ip, 30% increase of life-span, i.p. 24 h after implantation, read-out: Dose needed to give ILS30): 0.74 mg/kg
